According to US20080051319A1, “Inhibiting JNK Signaling Promotes CNS Axon Regeneration” (Children's Medical Center Corporation, priority 2006, published 2008):

System: 4 week-old rat DRGs
Experiment: in vitro neurite outgrowth assay on immobilized AP-Nogo-66
Type: cell-based
Method: JNK is a member of the mitogen-activated protein kinase (MAP kinase) family which is abundantly expressed in axons and growth cones, and has been implicated in numerous roles including cell stress and cell proliferation. […] Briefly, 4 week-old rat DRGs were dissected, dissociated and plated onto immobilized substrates (AP (100 ng/cm^2) or AP-Nogo-66 (100 ng/cm^2)). Cells were cultured for 24 h before fixation with 4% paraformaldehyde and staining with a neuronal-specific anti-β-tubulin III antibody (Tuj-1, Covance). The average lengths of the longest neurite in individual neurons were measured from at least 150 neurons per condition, from duplicate wells and from three independent experiments, and quantified as described previously. Immunohistochemistry was performed using antibodies against p75 (Chemicon).

For `Oc1c2ccccc2c2c3c(cccc13)N=N2` [SP600125], the “concentrations resulting in an abortion of neurite extension” value was “above 5 μM”.
